Structures are written as SMILES.

For experiment [1], the system named is A549. In words: Antiproliferative activity against human A549 cells after 6 to 7 days by celltiter-glo luminescence assay in absence of 70% human serum albumin. In kind it is functional, cell-based. (Cellular ATP, detected with luciferase, serves as a proxy for viable cell number.)
The target of experiment [2] is T1, Aurora kinase A (Homo sapiens, UniProt O14965).
T1 sequence (O14965 whole entry): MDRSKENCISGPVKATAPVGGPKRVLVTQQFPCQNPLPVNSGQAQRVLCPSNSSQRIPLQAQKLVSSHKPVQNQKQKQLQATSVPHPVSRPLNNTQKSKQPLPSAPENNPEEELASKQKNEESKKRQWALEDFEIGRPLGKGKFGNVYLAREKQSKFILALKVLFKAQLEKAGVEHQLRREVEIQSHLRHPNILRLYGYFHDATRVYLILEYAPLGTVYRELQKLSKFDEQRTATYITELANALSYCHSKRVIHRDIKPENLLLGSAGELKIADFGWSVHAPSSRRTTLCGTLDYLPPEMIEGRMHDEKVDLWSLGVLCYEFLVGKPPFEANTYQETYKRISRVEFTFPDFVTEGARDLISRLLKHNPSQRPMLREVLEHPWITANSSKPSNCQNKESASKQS
In words: Inhibition of human Aurora A.

In experiment [3] the target is Aurora kinase B (Homo sapiens, UniProt Q96GD4). As to the kind of experiment: Inhibition of human Aurora B by in vitro inhibition assay.
Sequence of Aurora kinase B (Q96GD4 whole entry): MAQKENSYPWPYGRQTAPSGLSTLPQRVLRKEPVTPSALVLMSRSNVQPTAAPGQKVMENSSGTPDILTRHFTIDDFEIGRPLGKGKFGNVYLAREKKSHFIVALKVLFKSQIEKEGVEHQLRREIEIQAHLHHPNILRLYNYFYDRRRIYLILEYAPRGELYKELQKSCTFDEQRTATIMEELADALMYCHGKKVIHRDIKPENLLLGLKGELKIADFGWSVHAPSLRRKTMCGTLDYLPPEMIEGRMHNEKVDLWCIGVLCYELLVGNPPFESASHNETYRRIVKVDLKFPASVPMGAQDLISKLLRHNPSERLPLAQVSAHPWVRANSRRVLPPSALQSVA
The test system of experiment [4] is A549. In words: Selectivity ratio of EC50 for human A549 cells in presence of 70% human serum albumin to EC50 for human A549 cells in absence of 70% human serum albumin. The format is functional.

Consider `O=C(Nc1ccccc1)Nc1ccc(-c2nn(CC(F)(F)F)cc2-c2ccnc3[nH]ccc23)cc1`, for which a half-maximal response in experiment [1] (EC50) required 326 nM. For the same molecule, the IC50 (as a rule, the midpoint of a concentration-inhibition curve) in experiment [2] was found to be 2150 nM; in experiment [3], 16 nM.
On to `CCn1cc(-c2ccnc3[nH]c(-c4ccc(CN5CCOCC5)cc4)cc23)c(-c2ccc(NC(=O)Nc3ccccc3)cc2)n1`, for which the EC50 (as a rule, the concentration at which the effect is half-maximal) in experiment [1] is 17 nM. The figures for the IC50 in experiment [2] and in experiment [3] were 59 nM and 66 nM, respectively. The “Ratio EC50” value in experiment [4] turned out to be 10.
In the case of `CCn1cc(-c2ccnc3[nH]c(-c4cccc(NC(C)=O)c4)cc23)c(-c2ccc(NC(=O)Nc3ccccc3)cc2)n1`, the EC50 in experiment [1] came out at 156 nM. The IC50 in experiment [2] came out at 126 nM; in experiment [3] it was 44 nM. Further, in experiment [4], the “Ratio EC50” value worked out at 10.
For `CCn1cc(-c2ccnc3[nH]c(CNCCO)cc23)c(-c2ccc(NC(=O)Nc3ccccc3)cc2)n1` the same measures were 18600 nM, 2820 nM, 46 nM and 10.
For `CCn1cc(-c2ccnc3[nH]c(C(=O)NCCN4CCOCC4)cc23)c(-c2ccc(NC(=O)Nc3ccccc3)cc2)n1` the same measures were 200 nM, 197 nM, 5 nM and 10.
For the molecule `CCn1cc(-c2ccnc3[nH]c(-c4ccc(CN5CCCC5)cc4)cc23)c(-c2ccc(NC(=O)N(C)C)cc2)n1`, the response in experiment [1] was half-maximal at 6 nM (EC50). Besides, the IC50 in experiment [2] came out at 414 nM; in experiment [3] it was 4.5 nM.
As for `CCNC(=O)Nc1ccc(-c2nn(CC)cc2-c2ccnc3[nH]c(-c4ccc(CN5CCCC5)cc4)cc23)cc1`, the EC50 in experiment [1] stood at 8 nM. Further, the IC50 in experiment [2] worked out at 42 nM; in experiment [3] it was 1.5 nM.
For the molecule `CCn1cc(-c2ccnc3[nH]ccc23)c(-c2ccc(NC(=O)N(C)C)cc2)n1`, the IC50 in experiment [2] was greater than 10000 nM.
The molecule `CCNC(=O)Cn1cc(-c2ccnc3[nH]ccc23)c(-c2ccc(NC(=O)Nc3ccccc3)cc2)n1` registered an EC50 in experiment [1] greater than 20000 nM. Further, the IC50 was found to be 3390 nM in experiment [2] and 64 nM in experiment [3].
In turn, `CCn1cc(-c2ccnc3[nH]c(-c4ccc(NC(C)=O)cc4)cc23)c(-c2ccc(NC(=O)Nc3ccccc3)cc2)n1` gave an EC50 in experiment [1] of 110 nM. For the same molecule, the IC50 came out at 62 nM in experiment [2] and 44 nM in experiment [3]. For the same molecule, in experiment [4], the “Ratio EC50” value came out at 10.
In turn, `CCn1cc(-c2ccnc3[nH]c(CNCCS(C)(=O)=O)cc23)c(-c2ccc(NC(=O)Nc3ccccc3)cc2)n1` yielded an EC50 in experiment [1] of 11500 nM. The IC50 turned out to be 579 nM in experiment [2] and 24 nM in experiment [3]. In experiment [4], the “Ratio EC50” value is reported as 10.
In turn, `CCn1cc(-c2ccnc3[nH]c(-c4cccc(CN5CCOCC5)c4)cc23)c(-c2ccc(NC(=O)Nc3ccccc3)cc2)n1` yielded an EC50 in experiment [1] of 30 nM. The IC50 worked out at 94 nM in experiment [2] and 57 nM in experiment [3]. Also, in experiment [4], the “Ratio EC50” value was 10.
For `O=C(Nc1ccccc1)Nc1ccc(-c2nn(CCCO)cc2-c2ccnc3[nH]ccc23)cc1`, a half-maximal effect in experiment [1] (EC50) was put at 779 nM. For the same molecule, the IC50 in experiment [2] amounted to 969 nM; in experiment [3], 2 nM.
The molecule `CCn1cc(-c2ccnc3[nH]c(C(=O)NCCCN4CCN(C)CC4)cc23)c(-c2ccc(NC(=O)Nc3ccccc3)cc2)n1` gave an EC50 in experiment [1] of 638 nM. Further, the figures for the IC50 in experiment [2] and in experiment [3] were 228 nM and 8 nM, respectively. The “Ratio EC50” value in experiment [4] was 10.
In turn, `O=C(Nc1ccccc1)Nc1ccc(-c2n[nH]cc2-c2ccnc3[nH]ccc23)cc1` yielded an EC50 in experiment [1] of 12800 nM. Further, the IC50 worked out at 3850 nM in experiment [2] and 32 nM in experiment [3].
As to `CCn1cc(-c2ccnc3[nH]c(CN(C)C)cc23)c(-c2ccc(NC(=O)Nc3ccccc3)cc2)n1`, a half-maximal effect in experiment [1] (EC50) was put at 4390 nM. Moreover, the IC50 in experiment [2] was determined as 1700 nM; in experiment [3], 58 nM. Also, the “Ratio EC50” value in experiment [4] was 10.
The corresponding values for `CCn1cc(-c2ccnc3[nH]c(C(=O)NCCN4CCN(C)CC4)cc23)c(-c2ccc(NC(=O)Nc3ccccc3)cc2)n1` are 417 nM, 203 nM, 5 nM and 10.
In the case of `CC(C)(C)n1ncc(-c2ccnc3[nH]ccc23)c1-c1ccc(NC(=O)Nc2ccccc2)cc1`, the response in experiment [1] was half-maximal at 890 nM (EC50). Moreover, the IC50 in experiment [2] is 5770 nM; in experiment [3], 40 nM.
In experiment [1], `CCn1cc(-c2ccnc3[nH]c(-c4ccc(CN5CCOCC5)cc4)cc23)c(-c2ccc(NC(=O)N(C)C)cc2)n1` gave a half-maximal effective concentration (EC50) of 9 nM. For the same molecule, the IC50 in experiment [2] came to 250 nM; in experiment [3], 8.1 nM.
Consider `CCn1ncc(-c2ccnc3[nH]ccc23)c1-c1ccc(NC(=O)Nc2ccccc2)cc1`, for which the response in experiment [1] was half-maximal at 1590 nM (EC50). Further, the IC50 was 5600 nM in experiment [2] and 25 nM in experiment [3].
The corresponding values for `CCNC(=O)Nc1ccc(-c2nn(CC)cc2-c2ccnc3[nH]c(-c4cccc(CN5CCCC5)c4)cc23)cc1` are 9 nM, 58 nM and 1.4 nM.
As for `O=C(Nc1ccccc1)Nc1ccc(-c2nn(CC(O)CO)cc2-c2ccnc3[nH]ccc23)cc1` (stereo unspecified), the response in experiment [1] was half-maximal at 9610 nM (EC50). For the same molecule, the IC50 in experiment [2] stood at 377 nM; in experiment [3] it was 1 nM.
The corresponding values for `O=C(Nc1ccccc1)Nc1ccc(-c2nn(CC(=O)N3CCOCC3)cc2-c2ccnc3[nH]ccc23)cc1` are greater than 20000 nM, 6810 nM and 85 nM.
`CCNC(=O)Nc1ccc(-c2nn(CC)cc2-c2ccnc3[nH]c(-c4ccc(CN(C)C)cc4)cc23)cc1`: a half-maximal response in experiment [1] (EC50) required 6 nM. For the same molecule, the results for the IC50 in experiment [2] and in experiment [3] were 39 nM and 1.7 nM, respectively.
Take `CCn1cc(-c2ccnc3[nH]c(-c4cccc(CN5CCCC5)c4)cc23)c(-c2ccc(NC(=O)N(C)C)cc2)n1`: in experiment [1], the EC50 amounted to 7 nM. Moreover, the IC50 in experiment [2] turned out to be 366 nM; in experiment [3], 2.1 nM.
For `CCNC(=O)Nc1ccc(-c2nn(CC)cc2-c2ccnc3[nH]c(-c4cccc(CN5CCOCC5)c4)cc23)cc1` the same measures were 26 nM, 70 nM and 5 nM.
For `NC(=O)Cn1cc(-c2ccnc3[nH]ccc23)c(-c2ccc(NC(=O)Nc3ccccc3)cc2)n1` the same measures were greater than 20000 nM, 5680 nM and 64 nM.
As for `O=C(Nc1ccccc1)Nc1ccc(-c2nn(CC3CCCO3)cc2-c2ccnc3[nH]ccc23)cc1` (stereo unspecified), the IC50 in experiment [2] is 6190 nM; in experiment [3], 97 nM.
On to `CCn1cc(-c2ccnc3[nH]c(-c4cccc(CN5CCOCC5)c4)cc23)c(-c2ccc(NC(=O)N(C)C)cc2)n1`, for which a half-maximal effect in experiment [1] (EC50) was put at 18 nM. Moreover, the figures for the IC50 in experiment [2] and in experiment [3] were 495 nM and 4.7 nM, respectively.
As for `CC(C)(C)n1cc(-c2ccnc3[nH]ccc23)c(-c2ccc(NC(=O)Nc3ccccc3)cc2)n1`, the EC50 in experiment [1] is 476 nM. Also, the IC50 in experiment [2] was found to be 8160 nM; in experiment [3], 50 nM.
As to `O=C(Nc1ccccc1)Nc1ccc(-c2nn(CCO)cc2-c2ccnc3[nH]ccc23)cc1`, in experiment [1], the EC50 amounted to 2630 nM. Also, the figures for the IC50 in experiment [2] and in experiment [3] were 792 nM and 3 nM, respectively.
`CCNC(=O)Nc1ccc(-c2nn(CC)cc2-c2ccnc3[nH]c(-c4ccc(CN5CCOCC5)cc4)cc23)cc1` returned an EC50 in experiment [1] of 12 nM. In addition, the results for the IC50 in experiment [2] and in experiment [3] were 23 nM and 4.7 nM, respectively.
With `CCn1cc(-c2ccnc3[nH]c(CNCCN(C)C)cc23)c(-c2ccc(NC(=O)Nc3ccccc3)cc2)n1`, the IC50 in experiment [2] was determined as 5480 nM; in experiment [3], 276 nM. In experiment [4], the “Ratio EC50” value is recorded as 10.

The values above are taken from ChEMBL document CHEMBL1157791, “Discovery of GSK1070916, a potent and selective inhibitor of Aurora B/C kinase” (J Med Chem, 2010).
